Measurements as given in patent US20240034730A1, “PYRAZOLO DERIVATIVES AS HUMAN DIHYDROOROTATE DEHYDROGENASE (HDHODH) INHIBITORS FOR USE AS ANTIVIRALS” (DRUG DISCOVERY AND CLINIC S.R.L., priority 2020, published 2024).
Values after ≈ are worked out from the molar mass of the structure shown. Like-named read-outs stand apart in the source and are kept apart here.

Tests used:
recombinant hDHODH = recombinant hDHODH (Homo sapiens (Human), UniProt Q02127); test: hDHODH inhibition assay (DCIP reduction); format: biochemical
recombinant hDHODH, sequence (Q02127 whole entry): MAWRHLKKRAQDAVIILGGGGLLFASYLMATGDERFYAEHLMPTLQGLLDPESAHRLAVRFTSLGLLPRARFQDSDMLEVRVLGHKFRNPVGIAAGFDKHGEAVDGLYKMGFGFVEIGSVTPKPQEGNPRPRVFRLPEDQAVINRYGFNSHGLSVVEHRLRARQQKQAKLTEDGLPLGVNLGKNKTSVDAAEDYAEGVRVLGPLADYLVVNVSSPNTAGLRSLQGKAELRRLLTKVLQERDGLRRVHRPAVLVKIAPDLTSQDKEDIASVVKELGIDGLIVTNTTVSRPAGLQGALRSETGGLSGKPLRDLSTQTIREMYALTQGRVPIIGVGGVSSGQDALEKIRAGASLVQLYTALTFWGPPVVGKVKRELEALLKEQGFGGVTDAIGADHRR

[1] = log D (pH 7.4), shake-flask n-octanol/PBS; settings: n-octanol/PBS pH 7.4, shake flask
Description: (§1) Lipophilicity. The shake flask method was chosen to determinate logD7.4.
(§2) The partition coefficients between n-octanol and PBS at pH 7.4 (log D^7.4) were obtained using the shake-flask technique at room temperature. In the shake-flask experiments, 50 mM of phosphate buffered saline pH 7.4 was used as the aqueous phase. The organic (n-octanol) and aqueous phases were mutually saturated by shaking for 4 h. The compounds were solubilized in the buffered aqueous phase at the highest concentration compatible with solubility and appropriate amounts of n-octanol were added. The two phases were shaken for about 20 min, by which time the partitioning equilibrium of solutes had been reached, and then centrifuged (10000 rpm, 10 min).

hCoV-OC43 = test: Focus forming reduction assay (FFRA), hCoV-OC43 in HCT-8 cells, single concentration; format: cell-based; settings: HCT8 cells, 72 h p.i., vs DMSO control; for inhibition at 0.1 µM: Betacoronavirus 1, OC43, HCT-8, 72 h, read-out: % Decrease of hCoV-OC43 replication in presence of inhibitor 0.1 μM
[2] = pH 7.4
Description: as §1, §2

[3] = Solubility assay at pH 7.4 in PBS; format: physicochemical; settings: for solubility at 24 h: 25 °C, pH 7.4, aqueous buffer, thermodynamic from solid; for Solubility in PBS: pH 7.4
Description: Solubility assay at pH 7.4. […] The samples were shaken in an orbital shaker at 25° C. for 24 h. These suspensions were filtered through a PTFE 0.45 μm filter (VWR), and the solutions were chromatographically analyzed using a Perkin Elmer Ultra High Performance Liquid Chromatography (UHPLC) instrument, equipped with a reverse-phase (RP) C18 Phenomenex column (2.1×100 mm, 1.7 μm particle size). Gradient elution: the ratio of eluents A and B (0.1% trifluoroacetic acid in water and 0.1% trifluoroacetic acid in acetonitrile, respectively) changed linearly from 60% A-40% B to 0% A-100% B in 12 minutes, followed by 5 minutes in isocratic elution at 100% of eluent B and then 4 minutes in equilibration elution to reset the starting conditions. The flow rate was 0.5 mL/min. Standard injection volumes were either 2 or 4 μl for poorly soluble compounds. The detection system was a Perkin Elmer diode-array-detector. The wavelengths that were monitored for each compound were defined according to the compound's own absorption spectrum. Solubility, expressed as μM concentration of the saturated solution, was calculated via interpolation with external calibration curves that were obtained with solutions of each compound in acetonitrile.

[4] = recombinant GST-hDHODH, means ± SE of three independent experiments, read-out: hDHODH IC50 ± SE
[5] = recombinant GST-hDHODH, means ± SE of three independent experiments

With `Cc1cc(Sc2ccncc2)c(C)cc1NC(=O)c1c(O)nn2ccccc12` [Compound 26, 2-Hydroxy-N-(2,5-dimethyl-4-(pyridin-4-ylthio)phenyl) pyrazolo[1,5-a]pyridine-3-carboxamide] the IC50 (recombinant hDHODH; [4]) was 2.21 ± 0.366 µM and the “Log D7.4 ± SD” value [1] was 1.76 ± 0.07.

With `O=C(Nc1c(F)c(F)c(-c2ccnc(C(F)(F)F)c2)c(F)c1F)c1c(O)nn2ccccc12` [Compound 9, 2-Hydroxy-N-(2,3,5,6-tetrafluoro-4-(2-(trifluoromethyl)pyridin-4-yl)phenyl)pyrazolo[1,5-a]pyridine-3-carboxamide] the inhibition at 0.1 µM (hCoV-OC43) was > 50%, the “Log D7.4 ± SD” value [2] was 1.84 ± 0.06 and the IC50 (recombinant hDHODH; [4]) was 0.15 ± 0.015 µM.

Compound `O=C(Nc1c(F)c(F)c(-c2cccc(OCCCO)c2)c(F)c1F)c1c(O)nn2ccccc12` [Compound 42, 2-Hydroxy-N-(2,3,5,6-tetrafluoro-3′-(3-hydroxypropoxy)-[1,1′-biphenyl]-4-yl) pyrazolo[1,5-a]pyridine-3-carboxamide] has an IC50 (recombinant hDHODH; [4]) of 0.00329 ± 0.00033 µM.

For `Cc1cc(NC(=O)c2c(O)nn3ccccc23)c(OC(C)C)cc1Oc1ccccc1` [Compound 31, 2-Hydroxy-N-(2-isopropoxy-5-methyl-4-phenoxyphenyl)pyrazolo[1,5-a]pyridine-3-carboxamide], the IC50 (recombinant hDHODH; [4]) was 5.2 ± 0.924 µM.

With `Oc1nn2ccccc2c1/N=N/c1ccc(Oc2ccccc2)cc1` [Compound 38, (E)-3-((4-phenoxyphenyl)diazinyl)pyrazolo[1,5-a]pyridin-2-ol] the “hDHODH IC50 ± SE” value (recombinant hDHODH; [5]) was “Inactive at 1 microM”.

`Cc1cc(Oc2ccccc2)c(C)cc1NC(=O)c1c(O)nn2ccccc12` [Compound 18] gave an IC50 (recombinant hDHODH; [4]) of 0.043 ± 0.005 µM.

In the case of `O=C(Nc1c(F)c(F)c(N2CCOCC2)c(F)c1F)c1c(O)nn2ccccc12` [Compound 6, 2-Hydroxy-N-(2,3,5,6-tetrafluoro-4-morpholinophenyl)pyrazolo[1,5-a]pyridine-3-carboxamide], the solubility at 24 h [3] is reported as 438 µM (≈ 180 µg/mL), the “Log D7.4 ± SD” value [2] is reported as 0.66 ± 0.08 and the IC50 (recombinant hDHODH; [4]) is reported as 0.0909 µM.

In the case of `O=C(Nc1c(F)c(F)c(-c2cccc(O)c2)c(F)c1F)c1c(O)nn2ccccc12` [Compound 14, 2-Hydroxy-N-(2,3,5,6-tetrafluoro-3′-hydroxy-[1,1′-biphenyl]-4-yl)pyrazolo[1,5-a]pyridine-3-carboxamide], the solubility at 24 h [3] is reported as 55 µM (≈ 23 µg/mL), the “Log D7.4 ± SD” value [2] is reported as 1.82 ± 0.09 and the IC50 (recombinant hDHODH; [4]) is reported as 0.00278 ± 0.00032 µM.

`Cc1cc(NC(=O)c2c(O)nn3ccccc23)c(C(C)C)cc1Oc1ccc(C(F)(F)F)cc1` [Compound 37, 2-Hydroxy-N-(2-isopropyl-5-methyl-4-(4-(trifluoromethyl)phenoxy)phenyl)pyrazolo[1,5-a]pyridine-3-carboxamide] gave an inhibition at 0.1 µM (hCoV-OC43) of 36.1% and a solubility at 24 h [3] of 1.23 ± 0.09 µM (≈ 0.577 µg/mL).

In the case of `Cc1cc(Oc2ccccc2)c(C(C)C)cc1NC(=O)c1c(O)nn2ccccc12` [Compound 30, 2-Hydroxy-N-(5-isopropyl-2-methyl-4-phenoxyphenyl)pyrazolo[1,5-a]pyridine-3-carboxamide], the solubility at 24 h [3] is reported as 0.98 ± 0.23 µM (≈ 0.393 µg/mL) and the “Log D7.4 ± SD” value [1] is reported as 2.91 ± 0.07.

For `Cc1cc(NC(=O)c2c(O)nn3ccccc23)c(C(C)C)cc1Oc1ccncc1` [Compound 36, 2-Hydroxy-N-(2-isopropyl-5-methyl-4-(pyridin-4-yloxy)phenyl)pyrazolo[1,5-a]pyridine-3-carboxamide], the solubility at 24 h [3] was 111.1 ± 0.35 µM (≈ 44.7 µg/mL) and the “Log D7.4 ± SD” value [1] was 2.51 ± 0.07.

In the case of `O=C(Nc1c(F)c(F)c(-c2ccc(F)cc2)c(F)c1F)c1c(O)nn2ccccc12` [Compound 10, 2-Hydroxy-N-(2,3,4′,5,6-pentafluoro-[1,1′-biphenyl]-4-yl)pyrazolo[1,5-a]pyridine-3-carboxamide], the “Solubility in PBS” value [3] is reported as “<LOD”, the “Log D7.4 ± SD” value [2] is reported as “Insoluble” and the IC50 (recombinant hDHODH; [4]) is reported as 0.0177 µM.

In the case of `O=C(Nc1c(F)c(F)c(-c2ccccc2)c(F)c1F)c1c(O)nn2c(Cl)cccc12` [Compound 4, 7-Chloro-2-hydroxy-N-(2,3,5,6-tetrafluoro-[1,1′-biphenyl]-4-yl)pyrazolo[1,5-a]pyridine-3-carboxamide], the “Solubility in PBS” value [3] is reported as “<LOD”, the “Log D7.4 ± SD” value [2] is reported as 2.81 ± 0.13 and the IC50 (recombinant hDHODH; [4]) is reported as 0.0034 µM.

For `COc1cccc(-c2c(F)c(F)c(NC(=O)c3c(O)nn4ccccc34)c(F)c2F)c1` [Compound 16, 2-Hydroxy-N-(2,3,5,6-tetrafluoro-3′-methoxy-[1,1′-biphenyl]-4-yl)pyrazolo[1,5-a]pyridine-3-carboxamide], the IC50 (recombinant hDHODH; [4]) was 0.00275 ± 0.00031 µM.

In the case of `CCC(CC)Oc1cc(Oc2ccccc2)c(C)cc1NC(=O)c1c(O)nn2ccccc12` [Compound 35, 2-Hydroxy-N-(5-methyl-2-(pentan-3-yloxy)-4-phenoxyphenyl)pyrazolo[1,5-a]pyridine-3-carboxamide], the IC50 (recombinant hDHODH) is reported as 6.98 ± 1.01 µM.

`O=C(Nc1ccc(Oc2ccccc2)cn1)c1c(O)nn2ccccc12` [Compound 23, 2-Hydroxy-N-(5-phenoxypiridin-2-yl)pyrazolo[1,5-a]pyridine-3-carboxamide] gave an IC50 (recombinant hDHODH; [4]) of 12 ± 1 µM.

In the case of `O=C(Nc1ccc(Oc2cccc(C(F)(F)F)c2)cn1)c1c(O)nn2ccccc12` [Compound 24, 2-Hydroxy-N-5-[3-(trifluoromethyl)phenoxy]piridin-2-ylpyrazolo[1,5-a]pyridine-3-carboxamide], the IC50 (recombinant hDHODH; [4]) is reported as > 10 µM.

For `O=C(Nc1c(F)c(F)c(-c2cccc(F)c2)c(F)c1F)c1c(O)nn2ccccc12` [Compound 11, 2-Hydroxy-N-(2,3,3′,5,6-pentafluoro-[1,1′-biphenyl]-4-yl)pyrazolo[1,5-a]pyridine-3-carboxamide], the “Solubility in PBS” value [3] was “<LOD”, the “Log D7.4 ± SD” value [2] was 2.09 ± 0.04 and the IC50 (recombinant hDHODH; [4]) was 0.00203 µM.

In the case of `Oc1nn2ccccc2c1-c1nnc(-c2c(F)c(F)c(-c3ccccc3)c(F)c2F)o1` [Compound 39, 3-(5-(2,3,5,6-Tetrafluoro-[1,1′-biphenyl]-4-yl)-1,3,4-oxadiazol-2-yl) pyrazolo [1,5-a]pyridine-2-ol], the “hDHODH IC50 ± SE” value (recombinant hDHODH; [5]) is reported as “Inactive at 1 microM”.

With `Cc1cc(NC(=O)c2c(O)nn3ccccc23)c(C(C)C)cc1Oc1ccccc1` [Compound 29, 2-Hydroxy-N-(2-isopropyl-5-methyl-4-phenoxyphenyl)pyrazolo[1,5-a]pyridine-3-carboxamide] the solubility at 24 h [3] was 1.2 ± 0.28 µM (≈ 0.482 µg/mL) and the “Log D7.4 ± SD” value [1] was 3.18 ± 0.09.

With `O=C(Nc1ccc2[nH]ccc2c1)c1c(O)nn2ccccc12` [Compound 19, 2-Hydroxy-N-(1H-indol-5-yl)pyrazolo[1,5-a]pyridine-3-carboxamide] the IC50 (recombinant hDHODH; [4]) was > 10 µM and the “Log D7.4 ± SD” value [1] was 0.45 ± 0.02.

Work on `O=C(Nc1c(F)c(F)c(-c2cccs2)c(F)c1F)c1c(O)nn2ccccc12` [Compound 7, 2-Hydroxy-N-(2,3,5,6-tetrafluoro-4-(thiophen-2-yl)phenyl)pyrazolo[1,5-a]pyridine-3-carboxamide] yielded an IC50 (recombinant hDHODH; [4]) of 0.00135 ± 0.00045 µM.

For `CC(O)COc1cccc(-c2c(F)c(F)c(NC(=O)c3c(O)nn4ccccc34)c(F)c2F)c1` (stereo not drawn) [Compound 43, 2-Hydroxy-N-(2,3,5,6-tetrafluoro-3′-(2-hydroxypropoxy)-[1,1′-biphenyl]-4-yl) pyrazolo[1,5-a]pyridine-3-carboxamide], the IC50 (recombinant hDHODH; [4]) was 0.0025 ± 0.0002 µM.

With `Cc1cc(NC(=O)c2c(O)nn3ccccc23)ccc1Oc1ccccc1` [Compound 27] the IC50 (recombinant hDHODH; [4]) was 0.48 ± 0.031 µM.

In the case of `CC(=O)COc1cccc(-c2c(F)c(F)c(NC(=O)c3c(O)nn4ccccc34)c(F)c2F)c1` [Compound 41, 2-Hydroxy-N-(2,3,5,6-tetrafluoro-3′-(2-oxopropoxy)-[1,1′-biphenyl]-4-yl) pyrazolo [1,5-a]pyridine-3-carboxamide], the IC50 (recombinant hDHODH; [4]) is reported as 0.00082 ± 0.0001 µM.

`Cc1cccc2c(C(=O)Nc3c(F)c(F)c(-c4ccccc4)c(F)c3F)c(O)nn12` [Compound 2] gave an IC50 (recombinant hDHODH; [4]) of 0.0043 µM.

With `O=C(Nc1c(F)c(F)c(-c2cccc(C(F)(F)F)c2)c(F)c1F)c1c(O)nn2ccccc12` [Compound 13, 2-Hydroxy-N-(2,3,5,6-tetrafluoro-3′-(trifluoromethyl)-[1,1′-biphenyl]-4-yl)pyrazolo[1,5-a]pyridine-3-carboxamide] the “Solubility in PBS” value [3] was “<LOD”, the “Log D7.4 ± SD” value [2] was 2.69 ± 0.03 and the IC50 (recombinant hDHODH; [4]) was 0.00634 ± 0.00063 µM.

In the case of `O=C(Nc1c(F)c(F)c(-c2cccnc2)c(F)c1F)c1c(O)nn2ccccc12` [Compound 8, 2-Hydroxy-N-(2,3,5,6-tetrafluoro-4-(pyridin-3-yl)phenyl)pyrazolo[1,5-a]pyridine-3-carboxamide], the “Log D7.4 ± SD” value [2] is reported as 0.98 ± 0.03 and the IC50 (recombinant hDHODH; [4]) is reported as 0.00623 µM.

In the case of `Oc1nn2ccccc2c1/N=N/c1c(F)c(F)c(-c2ccccc2)c(F)c1F` [Compound 25], the “% Decrease of hCoV-OC43 replication in presence of inhibitor 0.1 μM” value (hCoV-OC43) is reported as 18.70% and the IC50 (recombinant hDHODH; [4]) is reported as 0.013 µM.

For `CCCC(C)Oc1cc(Oc2ccccc2)c(C)cc1NC(=O)c1c(O)nn2ccccc12` (stereo not drawn) [Compound 34, 2-Hydroxy-N-(5-methyl-2-(pentan-2-yloxy)-4-phenoxyphenyl) pyrazolo[1,5-a]pyridine-3-carboxamide], the IC50 (recombinant hDHODH; [4]) was 2.21 ± 0.346 µM.

In the case of `O=C(Nc1c(F)c(F)c(-c2ccc(C(F)(F)F)cc2)c(F)c1F)c1c(O)nn2ccccc12` [Compound 12, 2-Hydroxy-N-(2,3,5,6-tetrafluoro-4′-(trifluoromethyl)-[1,1′-biphenyl]-4-yl)pyrazolo[1,5-a]pyridine-3-carboxamide], the “Solubility in PBS” value [3] is reported as “<LOD”, the “Log D7.4 ± SD” value [2] is reported as “Insoluble” and the IC50 (recombinant hDHODH; [4]) is reported as 0.0718 µM.

With `O=C(Nc1c(F)c(F)c(-c2cccc(OC(F)(F)F)c2)c(F)c1F)c1c(O)nn2ccccc12` [Compound 15, 2-Hydroxy-N-(2,3,5,6-tetrafluoro-3′-(trifluoromethoxy)-[1,1′-biphenyl]-4-yl)pyrazolo[1,5-a]pyridine-3-carboxamide] the inhibition at 0.1 µM (hCoV-OC43) was 93.6%, the “Log D7.4 ± SD” value [2] was 3.27 ± 0.19 and the IC50 (recombinant hDHODH; [4]) was 0.0023 ± 0.00033 µM.

With `Cc1cc(NC(=O)c2c(O)nn3ccccc23)c(OC2CCC2)cc1Oc1ccccc1` [Compound 32, N-(2-cyclobutoxy-5-methyl-4-phenoxyphenyl)-2-hydroxypyrazolo[1,5-a]pyridine-3-carboxamide] the IC50 (recombinant hDHODH; [4]) was > 10 µM.

For `CCC(C)Oc1cc(Oc2ccccc2)c(C)cc1NC(=O)c1c(O)nn2ccccc12` (stereo not drawn) [Compound 33, N-(2-(Sec-butoxy)-5-methyl-4-phenoxyphenyl)-2-hydroxypyrazolo[1,5-a]pyridine-3-carboxamide], the IC50 (recombinant hDHODH; [4]) was 3.94 ± 0.797 µM.
